We go through 3 compounds from paper PMC7180452, “Purine and Purine Isostere Derivatives of Ferrocene: An Evaluation of ADME, Antitumor and Electrochemical Properties” (Molecules, 2020).

Each structure is given as a SMILES string.

Data set [1] relates to ductal pancreatic adenocarcinoma (CFPAC-1). Put plainly: In vitro antiproliferative activity, CFPAC-1. Type of data set: cell-based, human. To be noted: CFPAC-1 cells. The protocol:
(§1) Antiproliferative activity of compounds 11a−11c, 12a−12c, 13a−13c, 14a−14c, 15a−15c, 16a, 23a−23c, 24a−24c, 25a−25c, 34a−34c and 35a−35c was evaluated in vitro on four human tumor cell lines (American Type Culture Collection, Manassas, VA, USA): metastatic colorectal adenocarcinoma (SW620), ductal pancreatic adenocarcinoma (CFPAC-1), hepatocellular carcinoma (HepG2) and cervical carcinoma (HeLa) as well as normal skin fibroblasts (HFF).

Data set [2] deals with hepatocellular carcinoma (HepG2). In words: In vitro antiproliferative activity, HepG2. To be noted: HepG2 cells. The format is cell-based, human. How it is done: as §1
Data set [3] in a line: Metabolic stability in mouse liver microsomes. Type of data set: in vitro ADME. To be noted: for t1/2: mouse liver microsomes, 1 µM; for In Vivo CLh / In Vivo CLh (% LBF): mouse; for In Vivo CLh: predicted in vivo hepatic clearance; for In Vivo CLh (% LBF): predicted, % of liver blood flow. How it is done: Metabolic stability of compounds was assessed in human and mouse liver microsomes (Corning, Tewksbury, MA, USA). Compounds, in final concentration of 1 µM, were incubated in phosphate buffer (50 mM, pH 7.4) for 60 min at 37 °C together with liver microsomes and NADPH generating system (nicotinamide adenine dinucleotide phosphate (NADP, 0.5 mM), glucose-6-phosphate (G6P, 5 mM), glucose-6-phosphate dehydrogenase (1.5 U mL^−1) and magnesium chloride (0.5 mM)). Also, compounds were incubated without the presence of NADPH cofactor, as a buffer stability control. Metabolic activity of liver microsomes was verified by including testosterone and propranolol as positive controls, as well as caffeine as a negative control. Sampling was performed at six time points (0, 10, 20, 30, 45 and 60 min), followed by reaction termination by addition of acetonitrile/methanol mixture (2:1, v/v) containing dicofenac as internal standard. Samples were analyzed as previously described for samples from permeability assay. The in vitro half-life (t1/2) was calculated from the slope of the linear regression by plotting ln % remaining of parent compound against incubation time. In vitro intrinsic clearance, CLint was calculated from half-life using following Equation (3):(3) CLint [µL min^−1 mg^−1]=ln2/t1/2×mL per incubation/mg protein per incubation where 52.5 mg protein/g liver is used as a constant.
Predicted in vivo hepatic clearance, in vivo CLh was calculated as follows:(4) in vivo CLh [mL min^−1 kg^−1]=CLint×(mg protein/g liver)×Q×(LW/BW) /Q+(CLint×(mg protein/g liver)×(LW/BW)) where: LW/BW = liver weight/body weight [g kg^−1]; 25.7 (human), 87.5 (mouse); Q = LBF = liver blood flow [mL min^−1 kg^−1]; 21/1.26 (human), 131/7.86 (mouse).
Predicted in vivo hepatic clearance can be expressed as %LBF and calculated as follows:(5) in vivo CLh [%LBF]=in vivo CLh/LBF×100

The nature of data set [4]: Square-wave and cyclic voltammetry on glassy carbon electrode. The format is physicochemical. To be noted: SWV, 0.5 mol/L NaClO4, pH 9, vs Ag/AgCl. An excerpt: The electrochemical properties of 6-chloro-7-deazapurine and 6-chloropurine derivatives of ferrocene 11c, 13a and 15b on a glassy carbon electrode were studied using cyclic (CV) and square-wave voltammetry (SWV) in aqueous electrolyte solutions over a wide pH range. The pH was varied from 2 to 10 in order to determine the effect of pH on the voltammograms (net peak currents and potentials). […] The pH of the solution affects the voltammetric response of this compound, i.e., the oxidation of evaluated compounds 11c, 13a and 15b is strongly dependent on it.
The forward (if) and backward (ib) components of the net response (Δi = if − ib) are shown as well (inset in Figure 2). […] The peak P1 occurs in all supporting electrolytes (i.e., at 2 ≤ pH ≤ 10), while the peak P2 is only observed at pH ≥ 9 (see Figure 1). The potential of peak P1 is pH-independent. Comparing to the literature data, peak P1 can be ascribed to the following charge transfer reaction [Fe^II(C5H5)2] ⇌ [Fe^III(C5H5)2]^+ + e^− [44, 48].
All chemicals used in the experiments were of the best grade commercially available (Sigma-Aldrich) and were used without further purification. Stock standard solutions of compounds 11c, 13a, 15b (c = 2.0 × 10^−3 mol/L) and 6-chloropurine (c = 1.2 × 10^−2 mol/L) were prepared from dry pure substances in dimethyl sulfoxide (DMSO, p.a.), purchased from Kemika (Zagreb, Croatia). Stock standard solution of ethynyl ferrocene (c = 1.1 × 10^−2 mol/L) was prepared from dry pure substance in ethanol (Kemika). For the supporting electrolyte, analytical grade NaClO4 (Kemika) was used. Water was deionized by the Millipore Milli-Q system to the resistivity ≥ 18 MΩcm. Voltammetric measurements were carried out using the computer-controlled electrochemical system „PGSTAT 101“ (Eco-Chemie, Utrecht, The Netherlands), controlled by the electrochemical software “NOVA 1.5”. A three-electrode system (BioLogic, Claix, France) with glassy carbon electrode (GCE) of 3 mm in diameter as a working electrode, Ag/AgCl (3 mol/L NaCl) as a reference electrode and a platinum wire as a counter electrode were used. All potentials were expressed versus Ag/AgCl (3 mol/L NaCl) reference electrode. The supporting electrolyte (0.5 mol/L NaClO4), adjusted to the desired pH value, was placed in the electrochemical cell and the required aliquot of the standard analyte solution was added. The solution in the electrochemical cell was degassed with high purity nitrogen for 10 min before measurement, and the nitrogen blanket was maintained thereafter. Before each run, the glassy carbon working electrode was polished with diamond suspension in spray (grain size 6 µm) and rinsed with ethanol and deionized water. All experiments were performed at room temperature. The presented results are reported as the mean value of three independent measurements.

Data set [5] is described as follows: Turbidimetric kinetic solubility assay. To be noted: for Kinetic Solubility: PBS, 1% DMSO, 37 °C, 2 h, estimated range; for Solubility classification: kinetic solubility, in words.
Description: The turbidimetric solubility assay, which allows a rapid determination of the kinetic solubility of newly synthesized compounds using small amounts of their DMSO solutions, was used to assess the kinetic solubility [38].
The compounds’ DMSO stock solutions in concentration of 10 mM were serially diluted by factor 3.3×, 3×, 3.3× and 3× in DMSO. Prepared solutions were spiked into phosphate-buffered saline (PBS, 100 mM) to obtain final compounds’ concentrations of 100, 30, 10, 3 and 1 µM (3 µL of prepared dilutions were spiked to 297 µL of PBS, with final DMSO content of 1%, v/v). All compounds were tested in two replicas per concentration. Prepared solutions were incubated at 37 °C for 2 h with gentle shaking. Blank solutions were also prepared by spiking DMSO in PBS buffer (1% of DMSO, v/v). […] Compound/control samples are compared to the blank solution. […] Results were expressed as an estimated solubility range (lower and upper bound).
Data set [6] can be described thus: Chrom logD determination (fast-gradient HPLC). To be noted: pH 7.4.

As a reminder, the IC50 is the concentration at which inhibition is half-maximal. Turning to `CC([c-]1cccc1)n1cc(Cn2cnc3ncnc(Cl)c32)nn1.[Fe+2].c1cc[cH-]c1` (centres unmarked) [Compound 15b, 6-Chloro-7-[1-(1-ferrocenyl-1-methylmethyl-1,2,3-triazol-4-yl)methyl]-7H-purine], in data set [1], the IC50 is 28.6 ± 2.68 µM. In data set [2], this compound came in with a concentration for half-maximal inhibition (IC50) of 37.1 ± 1.84 µM. Moreover, in data set [3], the t1/2 is 2.9 min, the “In Vivo CLh” value is 25.4 mL/min/kg and the “In Vivo CLh (% LBF)” value is 99 % LBF. In data set [4], the “Oxidation peak P1 potential (ferrocene)” value is ~ 0.4 V and the “Oxidation peak P2 potential (triazole)” value is reported as ~ 1.1 V. In data set [5], the “Kinetic Solubility” value is above 100 µM and the Solubility classification entry was “high solubility”. Also, the “Chrom logD” value in data set [6] was found to be 4.15.

`Clc1ncnc2c1ncn2Cc1cn(C[c-]2cccc2)nn1.[Fe+2].c1cc[cH-]c1` [Compound 13a, 6-Chloro-9-[1-(1-ferrocenymethyl-1,2,3-triazol-4-yl)methyl]-9H-purine]: half-maximal inhibition in data set [1] (IC50) was put at 22.8 ± 4.31 µM. In data set [2], this compound showed an IC50 of 19.9 ± 5.12 µM. Also, in data set [3], the t1/2 was determined as 5.5 min, the “In Vivo CLh” value was 25.1 mL/min/kg and the “In Vivo CLh (% LBF)” value is recorded as 98 % LBF. In data set [4], the “Oxidation peak P1 potential (ferrocene)” value was ~ 0.4 V and the “Oxidation peak P2 potential (triazole)” value was ~ 1.1 V. For the same compound, in data set [5], the “Kinetic Solubility” value is above 100 µM and the Solubility classification entry is “high solubility”. Besides, the “Chrom logD” value in data set [6] amounted to 4.27.

In data set [1], `Clc1ncnc2c1ccn2Cc1cn(-[c-]2cccc2)nn1.[Fe+2].c1cc[cH-]c1` [Compound 11c, 4-Chloro-7-[1-(1-ferrocenyl-1,2,3-triazol-1-yl)methyl]-7H-pyrrolo[2,3-d]pyrimidine] displayed an IC50 of 35 ± 5.44 µM. In data set [2], this compound displayed a concentration for half-maximal inhibition (IC50) of 31.9 ± 4.32 µM. Moreover, in data set [3], the t1/2 was determined as 1.3 min, the “In Vivo CLh” value is 25.6 mL/min/kg and the “In Vivo CLh (% LBF)” value is reported as 99 % LBF. Besides, in data set [4], the “Oxidation peak P1 potential (ferrocene)” value is recorded as ~ 0.4 V and the “Oxidation peak P2 potential (triazole)” value is listed as ~ 1.1 V. In addition, the “Kinetic Solubility” value in data set [5] is 3 to 10 µM. Besides, in data set [6], the “Chrom logD” value was 5.62.
